The text below walks through data of patent US20250188032A1, “NITROGEN-CONTAINING HETEROCYCLIC COMPOUNDS AND USES THEREOF” (BNH RESEARCH CO., LTD., priority 2022, published 2025).

In one data set the test system is 293T cells. Nature of the data set: Cytotoxicity test (CCK-8 cell viability) in 293T cells. Type of data set: cell-based, human. The settings on record: 24 hours co-incubation, 293T cell line, % of control. Here is the method: Human undifferentiated neuroblastoma cell line SH-SY5Y and human embryonic kidney cell line (HEK)-293T were purchased from Korean Cell Line Bank (Korea) and Takara (Japan), respectively. Cells were grown in HyClone Minimal Essential Medium (MEM) and Dulbecco's Modified Eagle Medium (DMEM), respectively, supplemented with 10% (v/v) fetal bovine serum (FBS), penicillin (100 U/mL), and streptomycin ([…]). Cells were maintained in a humidified atmosphere of 95% air and 5% CO2 at 37° C. Cells were passaged 10 times at maximum. Cells were dissociated using 0.05% trypsin-EDTA solution and the cells were seeded in new culture dishes for maintenance.
To examine the cytotoxicity of compounds described herein in human cell lines, SH-SY5Y and 293T cells were used. Approximately 8,000 cells (for 293T) and 15,000 cells (for SH-SY5Y) were plated per well of a 96-well plate (SPL Life Sciences Co., Ltd., Pocheon, Korea). After incubating at 37° C. for 24 hours in a humidified atmosphere containing 5% CO2, the culture medium was replaced by a series of concentrations of test compounds diluted in the corresponding culture medium. The time of co-incubation was 24 hours and six replicates were made for each measurement. Finally, 10 μL of CCK-8 reagent (Dojindo Laboratories, Rockville, MD) was added to each well, and after incubation at 37° C. for 3 minutes, the OD at 450 nm was measured using a multifunction microplate reader (Tecan Infinite M200 Pro). These measurements were compared to that of a control and expressed as a percentage of the control to calculate cell viability. The IC50 value was calculated using SPSS software. To do this, the absorbance of the blank wells with only growth medium is subtracted from the values or the wells with cells. The readout value of background (vehicle) was set as a 100% viability, and then the percent viability for each test solution was calculated.
Cell viability (%)=[(As-Ab)/(Ac-Ab)]×100
The data was presented as the mean value and standard error of the mean (S.E.M.). Statistical analysis was performed with the one-way ANOVA with Tukey's post hoc test (GraphPad Prism 5 software package, version 5.02, GraphPad Software Inc. USA). Significance was accepted at p<0.05.

Another data set deals with GluN2B. Nature of the data set: Western blot of GluN2B protein in cultured fetal cortical cells. The settings on record: for GluN2B expression, Western blot results, Mean: relative value, vehicle set to 1, treated for 24 hours, N 3 or more; for Effect on GluN2B expression compared to the vehicle: comment on Table 6. It is filed as cell-based, mice. Here is the method:
The amount of GluN2B reacted with the compound of the present disclosure was measured using Western blot. The fetal cerebral cortex was extracted from mice at 17 days of gestation, dissociated into single cells, cultured for 13 days, and treated with BnH drugs for 24 hours. The drug-treated cells were subjected to protein lysate preparation using RIPA protein lysis buffer containing protease and phosphatase inhibitors. The protein concentration was determined using a BCA protein assay kit (Pierce Biotechnology) using bovine serum albumin as a standard. Equal amounts of protein (20 μg per lane) were separated by electrophoresis on SDS-polyacrylamide gels at 90 V for 2 hours, then transferred from the SDS-polyacrylamide gel to PVDF membrane at 100 V for 1 hour. Then, primary reaction with GluN2B antibody (ab65783, Abcam) was performed at 4° C. for 1 day, washed three times at 10-minutes intervals with 1×PBT, and secondary reaction was performed with anti-mouse antibody (sc-2357, Santa Cruz) for 1 hour, followed by washing three times at 10-minutes intervals with 1×PBT. Western blotting was performed as described above to confirm GluN2B protein expression. Subsequently, each blot was re-probed using anti-β-actin antibody (sc-47778, Santa Cruz). Housekeeping protein β-actin was detected as a normalization control.
The increase and decrease of BnH12 series were confirmed by setting the vehicle to 1 (N for each group was 3 or more).
Using the experimental procedure described in Example 3, it was determined whether various BnH12 series compounds increase GluN2B expression, and the results are shown in Table 6. These in vitro experimental results are expressed as relative values to the group (vehicle) that was not treated with the compound, with the effect of the group set to 1.

Several values for one entry are separate records, joined by “and”; a condition that tells them apart may be missing. Equal entries are not always repeated.

Regarding `C[C@H]1CC[C@@H](C(=O)O)CN1C(=O)Cc1ccc(O)cc1` [BnH12079, (3R,6S)-1-(2-(4-hydroxyphenyl)acetyl)-6-methylpiperidine-3-carboxylic acid], in the data set on 293T cells, the “Cell viability test results (CCK) 10 uM” value is reported as 99%< and the “Cell viability test results (CCK) 100 uM” value is 90%<. Besides, in the data set on GluN2B, the “GluN2B expression, Western blot results, Mean” value (“GluN2B expression … Mean” below) turned out to be 1.062.
The matching figures for `C[C@H]1CC[C@@H](C(=O)NO)CN1C(=O)Cc1ccc(F)cc1Cl` [BnH12009, (3R,6S)-1-(2-(2-chloro-4-fluorophenyl)acetyl)-N-hydroxy-6-methylpiperidine-3-carboxamide]: 95%<, 90%< and 1.248.
For the molecule `C[C@@H]1CC[C@H](C(=O)[O-])CN1C(=O)Cc1cccnc1.[Na+]` [BnH12068, Sodium (3S,6R)-6-methyl-1-(2-(pyridin-3-yl)acetyl)piperidine-3-carboxylate], the “GluN2B expression … Mean” value with GluN2B amounted to 1.286.
Regarding `O=C(NO)[C@@H]1CCCN1C(=O)Cc1ccc(F)cc1Cl` [BnH12016, (S)-1-(2-(2-chloro-4-fluorophenyl)acetyl)-N-hydroxypyrrolidine-2-carboxamide], in the data set on 293T cells, the “Cell viability test results (CCK) 10 uM” value came out at 99%< and the “Cell viability test results (CCK) 100 uM” value came out at 90%<. In addition, the “GluN2B expression … Mean” value with GluN2B worked out at 1.311.
Take `C[C@H]1CC[C@@H](C(=O)[O-])CN1C(=O)Cc1cccnc1.[Na+]` [BnH12038, Sodium (3R,6S)-6-methyl-1-(2-(pyridin-3-yl)acetyl)piperidine-3-carboxylate]: in the data set on 293T cells, the “Cell viability test results (CCK) 10 uM” value is given as 85%< and the “Cell viability test results (CCK) 100 uM” value is recorded as 85%<. Moreover, in the data set on GluN2B, the “Effect on GluN2B expression compared to the vehicle” value (from here on “Effect … compared to the vehicle”) was “excellent effects” and the “GluN2B expression … Mean” value is reported as 1.811.
On to `COc1ccc(CC(=O)N2C[C@@H](C(=O)O)CC[C@H]2C)cc1` [BnH12063, (3S,6R)-1-(2-(4-methoxyphenyl)acetyl)-6-methylpiperidine-3-carboxylic acid], for which, in the data set on 293T cells, the “Cell viability test results (CCK) 10 uM” value was 95%< and the “Cell viability test results (CCK) 100 uM” value came out at 95%<. For the same molecule, in the data set with GluN2B, the “Effect … compared to the vehicle” value is “excellent effects” and the “GluN2B expression … Mean” value is given as 1.652.
On to `C[C@H]1CC[C@@H](C(=O)O)CN1C(=O)Cc1cccc([N+](=O)[O-])c1` [BnH12073, (3R,6S)-6-methyl-1-(2-(3-nitrophenyl)acetyl)piperidine-3-carboxylic acid], for which, in the data set on 293T cells, the “Cell viability test results (CCK) 10 uM” value is listed as 85%< and the “Cell viability test results (CCK) 100 uM” value is on record as 85%<. Moreover, in the data set on GluN2B, the “Effect … compared to the vehicle” value is listed as “excellent effects” and the “GluN2B expression … Mean” value came to 2.013.
For `C[C@H]1CCCCN1C(=O)Cc1ccc(F)cc1Cl` [BnH12005, (S)-2-(2-chloro-4-fluorophenyl)-1-(2-methylpiperidin-1-yl)ethan-1-one], in the data set on 293T cells, the “Cell viability test results (CCK) 10 uM” value is 99%< and the “Cell viability test results (CCK) 100 uM” value is on record as 90%<. Also, in the data set with GluN2B, the “GluN2B expression … Mean” value was determined as 1.206.
On to `CC(C)C1CCC(C(=O)O)CN1C(=O)Cc1ccc(F)cc1Cl` (centres unmarked) [BnH12096, 1-(2-(2-chloro-4-fluorophenyl)acetyl)-6-isopropylpiperidine-3-carboxylic acid], for which, in the data set with 293T cells, the “Cell viability test results (CCK) 10 uM” value is 70%< and the “Cell viability test results (CCK) 100 uM” value is given as 65%<. In addition, in the data set with GluN2B, the “Effect … compared to the vehicle” value is “excellent effects” and the “GluN2B expression … Mean” value is listed as 2.848.
For `C[C@H]1CC[C@@H](C(=O)O)CN1C(=O)CC1CCCCC1` [BnH12006, (3R,6S)-1-(2-cyclohexylacetyl)-6-methylpiperidine-3-carboxylic acid], in the data set on 293T cells, the “Cell viability test results (CCK) 10 uM” value stood at 99%< and the “Cell viability test results (CCK) 100 uM” value is reported as 95%<. Besides, the “GluN2B expression … Mean” value in the data set with GluN2B is 1.238.
Taken in the same sequence, the figures for `C[C@H]1CC[C@@H](C(=O)O)CN1C(=O)Cc1ccc(N)cc1` [BnH12070, (3R,6S)-1-(2-(4-aminophenyl)acetyl)-6-methylpiperidine-3-carboxylic acid] were 99%<, 90%< and 1.302.
For `C[C@H]1CC[C@@H](C(=O)[O-])CN1C(=O)Cc1ccccn1.[Na+]` [BnH12039, Sodium (3R,6S)-6-methyl-1-(2-(pyridin-2-yl)acetyl)piperidine-3-carboxylate], in the data set with 293T cells, the “Cell viability test results (CCK) 10 uM” value is listed as 95%< and the “Cell viability test results (CCK) 100 uM” value is on record as 90%<. In the data set with GluN2B, the “GluN2B expression … Mean” value came out at 1.103.
In the case of `COc1ccc(CC(=O)N2C[C@H](C(=O)O)CC[C@@H]2C)cc1` [BnH12025, (3R,6S)-1-(2-(4-methoxyphenyl)acetyl)-6-methylpiperidine-3-carboxylic acid], in the data set with 293T cells, the “Cell viability test results (CCK) 10 uM” value was determined as 90%< and the “Cell viability test results (CCK) 100 uM” value is listed as 80%<. In addition, in the data set on GluN2B, the “Effect … compared to the vehicle” value is listed as “excellent effects” and the “GluN2B expression … Mean” value was determined as 1.582.
In the case of `C[C@H]1CC[C@@H](C(=O)O)CN1C(=O)Cc1ccc([N+](=O)[O-])cc1` [BnH12069, (3R,6S)-6-methyl-1-(2-(4-nitrophenyl)acetyl)piperidine-3-carboxylic acid], in the data set with 293T cells, the “Cell viability test results (CCK) 10 uM” value was 95%< and 80%<; the “Cell viability test results (CCK) 100 uM” value was 95%< and 80%<. For the same molecule, in the data set on GluN2B, the “Effect … compared to the vehicle” value is “excellent effects” and the “GluN2B expression … Mean” value came to 1.993.
For the molecule `O=C(NO)[C@H]1CCCN1C(=O)c1ccccc1` [BnH12018, (R)-1-benzoyl-N-hydroxypyrrolidine-2-carboxamide], in the data set on 293T cells, the “Cell viability test results (CCK) 10 uM” value was found to be 90%< and the “Cell viability test results (CCK) 100 uM” value is 90%<. Moreover, in the data set on GluN2B, the “Effect … compared to the vehicle” value is reported as “excellent effects” and the “GluN2B expression … Mean” value amounted to 1.381.
Turning to `C[C@H]1CCCCN1C(=O)Cc1cccnc1` [BnH12060, (S)-1-(2-methylpiperidin-1-yl)-2-(pyridin-3-yl)ethan-1-one], in the data set on 293T cells, the “Cell viability test results (CCK) 10 uM” value is listed as 99%< and the “Cell viability test results (CCK) 100 uM” value is 99%<. In the data set on GluN2B, the “Effect … compared to the vehicle” value is “excellent effects” and the “GluN2B expression … Mean” value is reported as 1.469.
Consider `C[C@H]1CC[C@@H](C(=O)O)CN1CCc1ccc(F)cc1Cl` [BnH12010, (3R,6S)-1-(2-chloro-4-fluorophenethyl)-6-methylpiperidine-3-carboxylic acid], for which the “GluN2B expression … Mean” value with GluN2B came to 1.074.
On to `C[C@H]1CCCCN1C(=O)Cc1ccccc1` [BnH12061, (S)-1-(2-methylpiperidin-1-yl)-2-phenylethan-1-one], for which, in the data set on 293T cells, the “Cell viability test results (CCK) 10 uM” value turned out to be 95%< and the “Cell viability test results (CCK) 100 uM” value worked out at 95%<. For the same molecule, in the data set on GluN2B, the “Effect … compared to the vehicle” value is listed as “excellent effects” and the “GluN2B expression … Mean” value is recorded as 1.683.
In the case of `C[C@H]1CC[C@@H](C(=O)O)CN1C(=O)Cc1ccccc1` [BnH12007, (3R,6S)-6-methyl-1-(2-phenylacetyl)piperidine-3-carboxylic acid], in the data set on 293T cells, the “Cell viability test results (CCK) 10 uM” value stood at 95%< and the “Cell viability test results (CCK) 100 uM” value amounted to 95%<. Also, the “GluN2B expression … Mean” value in the data set with GluN2B is reported as 1.311.
